# Reference: publication PMC4476799, “Englerin A Agonizes the TRPC4/C5 Cation Channels to Inhibit Tumor Cell Line Proliferation” (PLoS ONE, 2015)
# Like-named read-outs stand apart in the source and are kept apart here.
# System: cancer cell lines from the cancer cell line encyclopedia (CCLE)
# Experiment: Cell line profiling (CLiP) proliferation experiment
# Assay type: cell-based
# Set-up: key to Compound Activity (1-inactive;2-active): 1-inactive; 2-active; ACTIVITY_AREA: scale not given here; AMAX: unit not given here
# Settings: for IC50: read-out: Crossing Point; for EC50: read-out: Inflection Point
# Experimental: Compound profiling experiment and data analysis was performed as previously described. Data was imported and plotted using the Tibco Spotfire DXP application. Lines were categorized as sensitive, intermediate and refractory as follows: Amax<-40 & Inflection Point <2 ~ Sensitive, Amax>-20 & Inflection Point >10 ~ Refractory, all else were called Intermediate. Cancer Cell line HG-U133 Plus 2 data was processed and normalized as described. […] Five sets of refractory cell lines were generated from the pool of refractory cell lines trying to match the lineage composition of the set of sensitive cell lines. The limma package was used as previously described to perform the statistical comparison.
# [1] = cell line GA-10, haematopoietic_and_lymphoid_tissue
# [2] = cell line GAMG, central_nervous_system
# [3] = cell line GI-1 (central_nervous_system, gliosarcoma)
# [4] = cell line GI-1, central_nervous_system
# [5] = cell line GMS-10, central_nervous_system
# [6] = cell line GOS-3 (central_nervous_system, astrocytoma)
# [7] = cell line GOS-3, central_nervous_system
# [8] = cell line GP2d, large_intestine
# [9] = cell line GRANTA-519, haematopoietic_and_lymphoid_tissue
# [10] = cell line H4, central_nervous_system
# [11] = cell line HARA (lung, squamous_cell_carcinoma)
# [12] = cell line HH, haematopoietic_and_lymphoid_tissue
# [13] = cell line Hs 611.T, haematopoietic_and_lymphoid_tissue
# [14] = cell line MCAS (ovary, mucinous_carcinoma)
# [15] = cell line MOG-G-UVW (central_nervous_system)
# [16] = cell line NB-1 (autonomic_ganglia)
# [17] = cell line NB-4 (haematopoietic_and_lymphoid_tissue)
# [18] = cell line SNU-119, ovary, adenocarcinoma
# [19] = cell line SNU-626 (central_nervous_system, astrocytoma_Grade_IV)
# [20] = cell line SNU-1079, biliary_tract
smiles,measurement,setting,value
CC(C)[C@@]12C[C@@H](O)[C@@](C)(O1)[C@@H]1CC[C@@H](C)[C@H]1[C@@H]2OC(=O)/C=C/c1ccccc1 [Englerin B],ACTIVITY_AREA,[1],28.18
same,AMAX,[1],8.5
same,RESPONSE,[1],REFRACTORY
same,ACTIVITY_AREA,[2],50.48
same,AMAX,[2],-45.21
same,RESPONSE,[2],INTERMEDIATE
same,ACTIVITY_AREA,"cell line GCIY, stomach",49.94
same,AMAX,"cell line GCIY, stomach",-70.92
same,RESPONSE,"cell line GCIY, stomach",INTERMEDIATE
same,Compound Activity (1-inactive;2-active),"cell line GCT (soft_tissue, NS)",1
same,ACTIVITY_AREA,"cell line GCT, soft_tissue",17.95
same,AMAX,"cell line GCT, soft_tissue",-52.9
same,RESPONSE,"cell line GCT, soft_tissue",INTERMEDIATE
same,IC50,"cell line GCT, soft_tissue",27.1 µM
same,EC50,"cell line GCT, soft_tissue",16.4 µM
same,Compound Activity (1-inactive;2-active),[3],1
same,IC50,[3],> 30 µM
same,ACTIVITY_AREA,[4],112.12
same,AMAX,[4],-25.87
same,RESPONSE,[4],INTERMEDIATE
same,IC50,[4],> 30 µM
same,ACTIVITY_AREA,[5],21.47
same,AMAX,[5],-32.03
same,RESPONSE,[5],INTERMEDIATE
same,Compound Activity (1-inactive;2-active),[6],1
same,IC50,[6],> 30 µM
same,ACTIVITY_AREA,[7],26.28
same,AMAX,[7],-31.04
same,RESPONSE,[7],INTERMEDIATE
same,IC50,[7],> 30 µM
same,ACTIVITY_AREA,[8],32.63
same,AMAX,[8],-48.04
same,RESPONSE,[8],INTERMEDIATE
same,ACTIVITY_AREA,"cell line GR-M, skin",48.68
same,AMAX,"cell line GR-M, skin",-36.64
same,RESPONSE,"cell line GR-M, skin",INTERMEDIATE
same,IC50,"cell line GR-M, skin",> 30 µM
same,IC50,cell line GR-M,> 30 µM
same,ACTIVITY_AREA,[9],14.82
same,AMAX,[9],16.83
same,RESPONSE,[9],REFRACTORY
same,ACTIVITY_AREA,[10],16.33
same,AMAX,[10],-3.42
same,RESPONSE,[10],REFRACTORY
same,IC50,[10],> 30 µM
same,IC50,cell line H4,> 30 µM
same,Compound Activity (1-inactive;2-active),[11],1
same,IC50,[11],15.9 µM
same,ACTIVITY_AREA,"cell line HARA, lung",73.57
same,AMAX,"cell line HARA, lung",-72.32
same,RESPONSE,"cell line HARA, lung",INTERMEDIATE
same,IC50,"cell line HARA, lung",15.9 µM
same,Compound Activity (1-inactive;2-active),"cell line HCC-15 (lung, squamous_cell_carcinoma)",1
same,ACTIVITY_AREA,"cell line HCC-15, lung",57.49
same,AMAX,"cell line HCC-15, lung",-70.57
same,RESPONSE,"cell line HCC-15, lung",INTERMEDIATE
same,Compound Activity (1-inactive;2-active),"cell line HCC-44 (lung, adenocarcinoma)",1
same,RESPONSE,"cell line HCC-44, lung",INTERMEDIATE
same,RESPONSE,"cell line HCC-366, lung",REFRACTORY
same,Compound Activity (1-inactive;2-active),"cell line HCC-1171 (lung, non_small_cell_carcinoma)",1
same,ACTIVITY_AREA,"cell line HCC-1171, lung",53.16
same,AMAX,"cell line HCC-1171, lung",-52.03
same,RESPONSE,"cell line HCC-1171, lung",INTERMEDIATE
same,IC50,"cell line HEC-59, endometrium",19.1 µM
same,IC50,"cell line HEC-151, endometrium",16.5 µM
same,IC50,"cell line HEC-265, endometrium",27.1 µM
same,EC50,"cell line HEC-265, endometrium",27.1 µM
same,Compound Activity (1-inactive;2-active),"cell line HEL 92.1.7 (haematopoietic_and_lymphoid_tissue, acute_myeloid_leukaemia)",1
same,IC50,[12],10.1 µM
same,EC50,[12],9.47 µM
same,IC50,"cell line HLC-1, lung",> 30 µM
same,IC50,cell line HLC-1,> 30 µM
same,IC50,"cell line HLF, liver",> 30 µM
same,EC50,"cell line HLF, liver",16.8 µM
same,IC50,cell line HLF,> 30 µM
same,IC50,"cell line HMC-1-8, breast",29.7 µM
same,Compound Activity (1-inactive;2-active),"cell line HPB-ALL (haematopoietic_and_lymphoid_tissue, acute_lymphoblastic_T_cell_leukaemia)",1
same,IC50,"cell line HT, haematopoietic_and_lymphoid_tissue",> 30 µM
same,IC50,cell line HT,> 30 µM
same,IC50,"cell line HTK-, haematopoietic_and_lymphoid_tissue",28.6 µM
same,IC50,"cell line Hs 571.T, ovary",19.6 µM
same,EC50,"cell line Hs 571.T, ovary",19.6 µM
same,IC50,[13],20.9 µM
same,EC50,[13],20.9 µM
same,IC50,"cell line Hs 729, soft_tissue",> 30 µM
same,IC50,cell line Hs 729,> 30 µM
same,IC50,"cell line Hs 936.T, skin",> 30 µM
same,EC50,"cell line Hs 936.T, skin",7.96 µM
same,IC50,cell line Hs 936.T,> 30 µM
same,IC50,"cell line Hs 939.T, skin",> 30 µM
same,IC50,cell line Hs 939.T,> 30 µM
same,IC50,"cell line Hs 940.T, skin",> 30 µM
same,IC50,"cell line Hs 944.T, skin",20.6 µM
same,EC50,"cell line Hs 944.T, skin",17.1 µM
same,IC50,"cell line HuG1-N, stomach",10.9 µM
same,IC50,cell line J82,> 30 µM
same,IC50,cell line KLE,> 30 µM
same,Compound Activity (1-inactive;2-active),"cell line Loucy (haematopoietic_and_lymphoid_tissue, acute_lymphoblastic_T_cell_leukaemia)",1
same,Compound Activity (1-inactive;2-active),"cell line MC116 (haematopoietic_and_lymphoid_tissue, B_cell_lymphoma_unspecified)",1
same,Compound Activity (1-inactive;2-active),[14],1
same,IC50,[14],> 30 µM
same,Compound Activity (1-inactive;2-active),"cell line MDA-MB-231 (breast, NS)",1
same,Compound Activity (1-inactive;2-active),"cell line MDA-MB-453 (breast, NS)",1
same,Compound Activity (1-inactive;2-active),"cell line MEC-1 (haematopoietic_and_lymphoid_tissue, chronic_lymphocytic_leukaemia-small_lymphocytic_lymphoma)",1
same,IC50,cell line MEL-HO (skin),> 30 µM
same,IC50,cell line MEL-HO,> 30 µM
same,IC50,cell line MHH-NB-11 (autonomic_ganglia),26.9 µM
same,IC50,cell line MJ (haematopoietic_and_lymphoid_tissue),9.13 µM
same,IC50,[15],> 30 µM
same,EC50,[15],10.2 µM
same,IC50,cell line MOG-G-UVW,> 30 µM
same,Compound Activity (1-inactive;2-active),"cell line MOLT-16 (haematopoietic_and_lymphoid_tissue, acute_lymphoblastic_T_cell_leukaemia)",1
same,Compound Activity (1-inactive;2-active),"cell line MONO-MAC-6 (haematopoietic_and_lymphoid_tissue, acute_myeloid_leukaemia)",1
same,IC50,cell line MOR/CPR (lung),28.3 µM
same,EC50,cell line MOR/CPR (lung),12.9 µM
same,EC50,cell line MOR/CPR,12.9 µM
same,Compound Activity (1-inactive;2-active),"cell line MeWo (skin, NS)",1
same,IC50,cell line Mel285 (eye),> 30 µM
same,EC50,cell line Mel285 (eye),13.8 µM
same,IC50,cell line Mel285,> 30 µM
same,IC50,[16],22.3 µM
same,EC50,[16],22.3 µM
same,IC50,[17],18.5 µM
same,EC50,[17],11.5 µM
same,Compound Activity (1-inactive;2-active),"cell line NCI-H1048 (lung, small_cell_carcinoma)",1
same,Compound Activity (1-inactive;2-active),"cell line NCI-H1299 (lung, non_small_cell_carcinoma)",1
same,IC50,cell line NCI-H1341 (lung),15 µM
same,EC50,cell line NCI-H1341 (lung),15 µM
same,Compound Activity (1-inactive;2-active),"cell line NCI-H1355 (lung, adenocarcinoma)",1
same,Compound Activity (1-inactive;2-active),"cell line NCI-H1792 (lung, adenocarcinoma)",1
same,Compound Activity (1-inactive;2-active),"cell line NCI-H2073 (lung, adenocarcinoma)",1
same,IC50,cell line NCI-H2106,> 30 µM
same,IC50,cell line NCI-H2330,> 30 µM
same,IC50,cell line OC 316,> 30 µM
same,IC50,cell line OMM2.3,> 30 µM
same,EC50,cell line OMM2.3,13.6 µM
same,IC50,cell line OMM2.5,> 30 µM
same,IC50,cell line OV7,> 30 µM
same,IC50,cell line OVISE,17.9 µM
same,IC50,cell line PC-3,25.9 µM
same,IC50,cell line PE/CA-PJ41 (clone D2),25.8 µM
same,IC50,cell line PEER,13.5 µM
same,IC50,cell line RCC10RGB,> 30 µM
same,IC50,cell line RCH-ACV,15.6 µM
same,EC50,cell line RCH-ACV,12.1 µM
same,IC50,cell line RD,> 30 µM
same,IC50,cell line RERF-LC-AI,> 30 µM
same,EC50,cell line RERF-LC-AI,17.9 µM
same,IC50,cell line RI-1,9.99 µM
same,EC50,cell line RI-1,9.99 µM
same,IC50,cell line RKN,> 30 µM
same,IC50,cell line RKO,14.7 µM
same,EC50,cell line RKO,13.1 µM
same,IC50,cell line RL,12.5 µM
same,EC50,cell line RL,11.8 µM
same,IC50,cell line RMUG-S,> 30 µM
same,IC50,cell line Reh,21.5 µM
same,EC50,cell line Reh,21.5 µM
same,IC50,"cell line SEM, haematopoietic_and_lymphoid_tissue, acute_lymphoblastic_B_cell_leukaemia",14.2 µM
same,Compound Activity (1-inactive;2-active),"cell line SF-295 (central_nervous_system, astrocytoma_Grade_IV)",1
same,IC50,"cell line SH-4, skin",> 30 µM
same,Compound Activity (1-inactive;2-active),"cell line SK-N-SH (autonomic_ganglia, NS)",1
same,IC50,"cell line SNG-M, endometrium, adenocarcinoma",> 30 µM
same,IC50,[18],> 30 µM
same,EC50,[18],27.2 µM
same,Compound Activity (1-inactive;2-active),"cell line SNU-475 (liver, hepatocellular_carcinoma)",1
same,Compound Activity (1-inactive;2-active),[19],1
same,IC50,[19],> 30 µM
same,IC50,"cell line SNU-626, central_nervous_system, astrocytoma_Grade_IV",> 30 µM
same,IC50,"cell line SNU-738, central_nervous_system, oligodendroglioma",> 30 µM
same,IC50,[20],25.7 µM
same,EC50,[20],25.7 µM
same,Compound Activity (1-inactive;2-active),"cell line SW48 (large_intestine, adenocarcinoma)",1
same,Compound Activity (1-inactive;2-active),"cell line SW 1783 (central_nervous_system, astrocytoma_Grade_III)",1
same,Compound Activity (1-inactive;2-active),"cell line THP-1 (haematopoietic_and_lymphoid_tissue, acute_myeloid_leukaemia)",1
same,Compound Activity (1-inactive;2-active),compound-level call,1
same,Compound Activity (1-inactive;2-active),compound-level call printed on every cell line row,1
same,Compound Activity (1-inactive;2-active),"compound-level call, the same on every cell line's row",1
same,Compound Activity (1-inactive;2-active),compound-level flag,1
same,Compound Activity (1-inactive;2-active),compound-level flag repeated on every cell line row,1
same,Compound Activity (1-inactive;2-active),"compound-level flag, printed on every cell line row",1
same,Compound Activity (1-inactive;2-active),flag of the compound,1
same,Compound Activity (1-inactive;2-active),overall call per compound,1
same,Compound Activity (1-inactive;2-active),overall class of the compound,1
same,Compound Activity (1-inactive;2-active),"printed on every cell line row, same value for the compound throughout",1
